From article PMC8734228 (Cancer discovery, 2021)

Key:
[1] = test system: cells dissociated from PDX FLC1 and FLC5; test: Primary high throughput screen, 1μM, 72 h; type: cell-based, human; conditions: pass = survival <60%
FLC PDX cells = test: Validation screen on cells dissociated from FLC PDX; type: cell-based, human; conditions: for Therapeutic window for FLC over PHH: FLC PDX cells compared with PHH; for Effect on FLC PDX cells in vitro (dose response, normalized percent survival): 10nM-10μM, FLC1-6; for Efficacy ranking in the screen: ranked by average −log10EC50 for FLC1-5 minus −log10EC50 for PHH
[2] = test system: cells dissociated directly from patient tumors (FLC.T6-T11); test: Direct from patient in vitro screening; type: cell-based, human; conditions: for Sensitivity of cells tested directly from patients: 10μM-10nM, 72h, Cell Titer Glo
[3] = test system: primary human hepatocytes (PHH); test: Validation counter-screen on primary human hepatocytes; conditions: 72 h; for Effect on PHH (dose response, normalized percent survival): up to 10 μM
FLC1 cells = test: Role of ROS: survival with or without N-acetyl cysteine 10mM; type: cell-based, human; conditions: NAC 10mM, 72 h

SMILES | Result in primary screen (normalized percent survival) [1] | other results
COc1ccc(C[C@H](NC(=O)[C@H](C)NC(=O)CN2CCOCC2)C(=O)N[C@@H](Cc2ccccc2)C(=O)C2(C)CO2)cc1 (stereo in doubt) [ONX-0914] | did not see any effect | –
CNC(=O)c1cccc(-c2ccc3c(N4CCOC[C@@H]4C)nc(N4CCOC[C@@H]4C)nc3n2)c1 [AZD2014] | – | Therapeutic window for FLC over PHH (FLC PDX cells): no therapeutic window
Cc1cc(C(=O)NOCCO)c(Nc2ccc(I)cc2F)n(C)c1=O [AZD8330] | None | –
CN(C)Cc1cccc(N/C(=C2\C(=O)Nc3cc(C(N)=O)ccc32)c2ccccc2)c1 [BIX02188] | None | –
CN(C)Cc1cccc(N/C(=C2\C(=O)Nc3cc(C(=O)N(C)C)ccc32)c2ccccc2)c1 [BIX02189] | None | –
COc1ccc(S(=O)(=O)Nc2cc(-c3c(O)ccc4ccccc34)c(O)c3ccccc23)cc1 [C188-9] | – | Effect on FLC PDX cells in vitro (dose response, normalized percent survival) (FLC PDX cells; 72 h): no effect
CONC(=O)[C@H]1[C@@H](O)[C@@]2(O)c3c(OC)cc(OC)cc3O[C@@]2(c2ccc(OC)cc2)[C@@H]1c1ccccc1 [CR-1-31-B] | – | Sensitivity of cells tested directly from patients [2]: sensitive; Effect on PHH (dose response, normalized percent survival) [3]: no effect
CN(NC(=O)CC(=O)NN(C)C(=S)c1ccccc1)C(=S)c1ccccc1 [Elesclomol] | – | Efficacy ranking in the screen (FLC PDX cells): sixth
C#Cc1cccc(Nc2ncnc3cc(OCCOC)c(OCCOC)cc23)c1 [Erlotinib] | – | Effect on FLC PDX cells in vitro (dose response, normalized percent survival) (FLC PDX cells; 72 h): no effect
Cc1c(CN2CCN(C(=O)[C@H](C)O)CC2)sc2c(N3CCOCC3)nc(-c3cnc(N)nc3)nc12 [GDC0980] | – | Therapeutic window for FLC over PHH (FLC PDX cells): no therapeutic window
CC1(C)C=C(CN2C/C(=C\c3ccc(F)cc3)C(=O)/C(=C/c3ccc(F)cc3)C2)C(C)(C)N1O [HO3867] | – | Effect on FLC PDX cells in vitro (dose response, normalized percent survival) (FLC PDX cells; 72 h): no effect
Clc1ccc(N/N=C(\c2ccccc2)c2ccccn2)nc1 [JIB-04] | – | Effect on FLC PDX cells in vitro (dose response, normalized percent survival) (FLC PDX cells; 72 h): effective against all PDX lines; Efficacy ranking in the screen (FLC PDX cells): second; EC50 (FLC PDX cells; read-out: EC50 against FLC PDX in vitro, across all FLC PDX lines, 72 h): 20 to 200 nM; EC50 ([3]; read-out: EC50 PHH): > 10000 nM
CC(=O)O/N=C1\C(=O)N(Cc2cc(Cl)ccc2Cl)c2ccc(Cl)cc21 [LDN-57444] | did not see any effect | –
CC(C)c1c2cc(-c3ccnc(NC4CCC(NC5CCOCC5)CC4)n3)ccc2nn1C (centres unmarked) [LY2857785] | – | Sensitivity of cells tested directly from patients [2]: some sensitivity; Effect of N-acetyl cysteine (NAC) on the toxicity of the drug (FLC1 cells): mildly attenuated
CC(C)C[C@H](NC(=O)CNC(=O)c1cc(Cl)ccc1Cl)B1OC(=O)C(CC(=O)O)(CC(=O)O)O1 [MLN9708] | did not see any effect | –
Cc1cc(OCc2nnc(SC3CCCC3)n2-c2cccnc2)ccc1-c1ccc(S(C)(=O)=O)cc1 [NMS873] | – | Efficacy ranking in the screen (FLC PDX cells): 72
Cc1ccc(S(=O)(=O)c2ccc([N+](=O)[O-])o2)cc1 [NSC697923] | – | Sensitivity of cells tested directly from patients [2]: blunted response; Drug sensitivity of FLC.T6 compared with derived PDX FLC6 (EC50) ([2]; cells direct from patient tumor vs cells from its PDX): outliers; Efficacy ranking in the screen (FLC PDX cells): 7; Effect of N-acetyl cysteine (NAC) on the toxicity of the drug (FLC1 cells): completely abrogated
COc1ccc(-c2ccc3ncc4c(c3c2)n(-c2ccc(N3CCNCC3)c(C(F)(F)F)c2)c(=O)n4C)cn1 [NVP-BGT226] | – | Effect on FLC PDX cells in vitro (dose response, normalized percent survival) (FLC PDX cells; 72 h): potency against all FLC PDX
COc1cccc2cc(-c3nc([C@H]4CC[C@H](C(=O)O)CC4)n4ncnc(N)c34)[nH]c12 [OSI-027] | – | Therapeutic window for FLC over PHH (FLC PDX cells): no therapeutic window

SMILES | Result in primary screen (normalized percent survival) [1] | other results
CC(=O)c1cc([N+](=O)[O-])c(Sc2cccc(Cl)c2Cl)s1 [P5091] | – | Efficacy ranking in the screen (FLC PDX cells): 38
COc1cccc(-c2cc(=O)c3ccccc3o2)c1N [PD98059] | None | –
O=C(NOCC1CC1)c1ccc(F)c(F)c1Nc1ccc(I)cc1Cl [PD184352] | None | –
Cc1cc(I)ccc1Nc1c(C(=O)NOCC2CC2)cc(F)c(F)c1F [PD198306] | None | –
N#C/C(=C(/N)Sc1ccc(N)cc1)c1ccccc1C(F)(F)F [SL-327] | None | –
CNC(=O)c1cc(Oc2ccc(NC(=O)Nc3ccc(Cl)c(C(F)(F)F)c3)cc2)ccn1 [Sorafenib] | – | Therapeutic window for FLC over PHH (FLC PDX cells): no therapeutic window
Cn1c(=O)c(F)c(Nc2ccc(I)cc2F)c2c(=O)n(C[C@@H](O)CO)cnc21 [TAK-733] | None | –
N#CC(=C(/N)Sc1ccccc1N)/C(C#N)=C(/N)Sc1ccccc1N [U0126] | None | –
CNC(=O)Nc1ccc(-c2nc(N3CC4CCC(C3)O4)c3cnn(C4CCC5(CC4)OCCO5)c3n2)cc1 [WYE-125132] | – | Therapeutic window for FLC over PHH (FLC PDX cells): no therapeutic window
COc1cc(Nc2ncc3c(n2)-c2ccc(Cl)cc2C(c2c(F)cccc2OC)=NC3)ccc1C(=O)O [alisertib] | – | Effect on FLC PDX cells in vitro (dose response, normalized percent survival) (FLC PDX cells; 72 h): no effect
CC(C)(C#N)c1cc(Cn2cncn2)cc(C(C)(C)C#N)c1 [anastrozole] | did not pass our primary screen | –
COc1cc(C[C@H]2C(=O)OC[C@@H]2Cc2ccc(OC)c(OC)c2)ccc1O [arctigenin] | None | –
Cn1cnc2c(F)c(Nc3ccc(Br)cc3F)c(C(=O)NOCCO)cc21 [binimetinib] | None | –
CC(C)C[C@H](NC(=O)[C@H](Cc1ccccc1)NC(=O)c1cnccn1)B(O)O [bortezomib] | did not see any effect | –
N.N.O=C([O-])C1(C(=O)[O-])CCC1.[Pt+2] [carboplatin] | no to minimal activity | –
N.N.[Cl][Pt][Cl] [cisplatin] | no to minimal activity | –
O=C(c1ccc(F)c(F)c1Nc1ccc(I)cc1F)N1CC(O)([C@@H]2CCCCN2)C1 [cobimetinib] | None | –
CC(C)(C)OC(=O)N[C@H]1CCCCC/C=C\[C@@H]2C[C@@]2(C(=O)NS(=O)(=O)C2CC2)NC(=O)[C@@H]2C[C@@H](OC(=O)N3Cc4cccc(F)c4C3)CN2C1=O [danoprevir] | did not see any effect | –
CCC[C@H](NC(=O)/C(C#N)=C/c1cccc(Br)n1)c1ccccc1 [degrasyn] | did not see any effect | –

SMILES | Result in primary screen (normalized percent survival) [1] | other results
CC(C)C[C@H](NC(=O)[C@@H](NC(=O)c1cccc(-c2ccccc2)n1)[C@@H](C)O)B(O)O [delanzomib] | did not see any effect | –
CCc1cnn2c(NCc3ccc[n+]([O-])c3)cc(N3CCCC[C@H]3CCO)nc12 [dinaciclib] | – | Sensitivity of cells tested directly from patients [2]: some sensitivity; Effect on PHH (dose response, normalized percent survival) [3]: toxic
COc1cc([C@@H]2c3cc4c(cc3[C@@H](O[C@@H]3O[C@@H]5CO[C@@H](C)O[C@H]5[C@H](O)[C@H]3O)[C@H]3COC(=O)[C@H]23)OCO4)cc(OC)c1O [etoposide] | no to minimal activity | –
C=C1C[C@@H]2[C@H](CC[C@]3(C)C(=O)CC[C@@H]23)[C@@]2(C)C=CC(=O)C=C12 [exemestane] | did not pass our primary screen | –
N#Cc1ccc(C2CCCc3cncn32)cc1 (centres unmarked) [fadrozole] | did not pass our primary screen | –
COc1ccc(-c2nc(N3CCOCC3)c3sc(CN(C)c4ncc(C(=O)NO)cn4)cc3n2)cn1 [fimepinostat] | – | Effect on FLC PDX cells in vitro (dose response, normalized percent survival) (FLC PDX cells; 72 h): affected FLC1,3,4; Efficacy ranking in the screen (FLC PDX cells): 22
O=c1[nH]cc(F)c(=O)[nH]1 [fluorouracil] | no to minimal activity | –
C[C@]12CCC(=O)C(O)=C1CC[C@@H]1[C@@H]2CC[C@]2(C)C(=O)CC[C@@H]12 [formestane] | did not pass our primary screen | –
Nc1ccn([C@@H]2O[C@H](CO)[C@@H](O)C2(F)F)c(=O)n1 [gemcitabine] | no to minimal activity | –
O=P1(NCCCl)OCCCN1CCCl (centres unmarked) [ifosfamide] | no to minimal activity | –
CCc1c2c(nc3ccc(OC(=O)N4CCC(N5CCCCC5)CC4)cc13)-c1cc3c(c(=O)n1C2)COC(=O)[C@]3(O)CC [irinotecan] | – | Effect on FLC PDX cells in vitro (dose response, normalized percent survival) (FLC PDX cells; 72 h): no effect
CC(C)C[C@H](NC(=O)CNC(=O)c1cc(Cl)ccc1Cl)B(O)O [ixazomib] | did not see any effect | –
N#Cc1ccc(C(c2ccc(C#N)cc2)n2cncn2)cc1 [letrozole] | did not pass our primary screen | –
O=C(NOC[C@H](O)CO)c1ccc(F)c(F)c1Nc1ccc(I)cc1F [mirdametinib] | None | –
CC1(C)CCC(c2ccc(Cl)cc2)=C(CN2CCN(c3ccc(C(=O)NS(=O)(=O)c4ccc(N[C@H](CCN5CCOCC5)CSc5ccccc5)c(S(=O)(=O)C(F)(F)F)c4)cc3)CC2)C1 [navitoclax] | – | Efficacy ranking in the screen (FLC PDX cells): fifth; Efficacy ranking in the screen (FLC PDX cells; listed as Navitoclax): 5
O=C1[O][Pt]2([NH][C@@H]3CCCC[C@H]3[NH]2)[O]C1=O [oxaliplatin] | no to minimal activity | –
O=C(NC[C@H](O)CO)c1ccncc1Nc1ccc(I)cc1F [pimasertib] | None | –
CNC(=O)c1cc(Oc2ccc(NC(=O)Nc3ccc(Cl)c(C(F)(F)F)c3)c(F)c2)ccn1 [regorafenib] | – | Therapeutic window for FLC over PHH (FLC PDX cells): no therapeutic window
Cn1cnc2c(F)c(Nc3ccc(Br)cc3Cl)c(C(=O)NOCCO)cc21 [selumetinib] | None | –
